Where “and” joins values, the source holds several entries; their conditions need not be identical. Equal entries are not always repeated.
How the values were obtained:
Format in all cases: in vivo
[1] = test system: experimental autoimmune encephalomyelitis (EAE); test: Experimental autoimmune encephalomyelitis (EAE) in Lewis rats; conditions: 0.5 ml/kg SC once, 14 days before EAE induction
[2] = test system: adjuvant arthritis (AA); test: Adjuvant arthritis (AA) in Lewis rats, inhibition of inflammation; conditions: for % Inhibition (100 μl) of the inflammation of adjuvant arthritis: 100 μl SC once, 14 days before induction of AA or on day 12 after induction, day of maximal inflammation
Description: AA was induced by immunizing inbred 8-10-week old Lewis rats (Harlan-Olac Limited, Blackthorn, Oxon, UK), at the base of the tail with 1 mg/0.1 ml of killed Mycobacterium tuberculosis (Sigma) in IFA (Sigma) as described (Pearson, 1956). Arthritis of the limbs was noted to develop 12-14 days later and was scored on a scale of 0-16 summing the severity of the inflammation of each of the 4 limbs on a scale of 0-4, as described (Holoshitz et al., 1983). The peak of the arthritis usually was observed around day 26 after immunization.
Control rats were untreated or treated by injections of saline. A positive control of immunosuppression was obtained by including a group of rats treated with the corticosteroid agent dexamethasone (200 μg) administered intraperitoneally every other day beginning on day 12 after induction.
The immunomodulator of the invention (100 μl oleyl alcohol, glycerol mono-oleate, linolenyl alcohol or cetyl alcohol) was administered subcutaneously (SC) once 14 days before induction of AA or on day 12 after induction of AA. The percent inhibition of inflammation measured on the day of maximal inflammation was computed as follows: [formula] […]

[3] = test system: adjuvant arthritis (AA); test: as above; conditions: for suppression of inflammation on day of peak disease: day 26
[4] = vs non-treated control, listed as OA

Structure (SMILES): CCCCCCCC/C=C\CCCCCCCCO [Oleyl alcohol, cis-9-octadecenol]
- % Incidence of disease [1]: 50.0%
- effect on EAE clinical parameters (in words) [1]: beneficial effect on all the clinical parameters
- Mean Onset of disease (Day No.) ([1]; rats without EAE counted as 25 days): 18.6 Day No.
- Disease duration ([1]; rats without EAE counted as zero): 2.0 days
- GMS (group mean score) ([1]; scale 0-5): 0.22
- MMS (mean maximal score) ([1]; scale 0-5): 0.88
- % Activity GMS ([1]; vs non-treated control): 77.1%
- % Activity Incidence ([1]; vs non-treated control): 33.3%
- % Activity MMS ([1]; vs non-treated control): 63%
- % Activity GMS [1, 4]: 77.1%
- % Activity MMS [1, 4]: 63.0%
- % Inhibition (100 μl) of the inflammation of adjuvant arthritis [2]: 78%
- suppression of inflammation on day of peak disease ([3]; 10 μl SC once 14 days before induction): 14%
- suppression of inflammation on day of peak disease ([3]; 50 μl SC once 14 days before induction): 61%
- suppression of inflammation on day of peak disease ([3]; 100 μl SC once 14 days before induction): 78%
- suppression of inflammation on day of peak disease ([3]; 500 μl SC once 14 days before induction): 90%
- suppression of inflammation ([3]; 500 μl, two further experiments): 96% and 91%

Structure (SMILES): CCC=CCC=CC/C=C\CCCCCCCCO [Linolenyl alcohol, cis-9,12,15-octadecatrienol]
- % Inhibition (100 μl) of the inflammation of adjuvant arthritis [2]: 75%

Structure (SMILES): CCCCCCCC/C=C\CCCCCCCC(=O)OCC(O)CO (stereo not drawn) [Glycerol mono-oleate, glycerol monooleate]
- % Inhibition (100 μl) of the inflammation of adjuvant arthritis [2]: 98%

Structure (SMILES): CCCCCCCC/C=C\CCCCCCCC(=O)O [oleic acid, cis-9-octadecenoic acid, reference compound]
- effect on inflammation of adjuvant arthritis (in words) ([2]; Lewis rats, Example 1): no effect

Structure (SMILES): CCCCCCCCCCCCCCCCO [Cetyl alcohol, cetyl alcohol]
- % Inhibition (100 μl) of the inflammation of adjuvant arthritis [2]: 66%
